The test system of assay [1] is isolated rabbit thoracic aorta preparations. The experiment in a line: Assay on vascular tone (vasorelaxation of methoxamine-precontracted aortic rings). The class given is cell-based. Particulars: for EC50: Oryctolagus cuniculus, read-out: EC50 (concentration producing 50% of the maximum relaxation). Here is the method: The ability of the compounds of the invention to induce vasorelaxation in comparison to precursor compound, was tested in vitro in isolated rabbit thoracic aorta preparations (Wanstall J. C. et al., Br. J. Pharmacol., 134:463-472, 2001).
Male New Zealand rabbits (1, 8-2 Kg) were used. The animals were anaesthetized with sodium thiopental (50 mg/kg, iv), sacrificed by exsanguinations and then the thorax was opened and the aorta dissected. The aortas were placed immediately in Krebs-HEPES buffer (pH 7.4; composition mM: NaCl 130.0, KCl 3.7, NaHCO3 14.9, KH2PO4 1.2, MgSO4⊙7H2O 1.2, Glucose 11.0, HEPES 10.0, CaCl2.2H2O 1.6) and cut into ring segments (4-5 mm in length). Each ring was placed in a 5 ml tissue bath filled with Krebs-HEPES buffer (37° C.) aerated with 95% O2 and 5% CO2 and was then attached to a force transducer (Grass FT03), connected to a BIOPAC MP150 System for measurement of the isometric tension^2. The preparations were allowed to equilibrate for 1 h at a resting tension of 2 g with changes of the buffer every 15 minutes and then stimulated by exposure to 90 mM KCl (3 times) with intervening washings. After equilibration, the rings were precontracted submaximally with methoxamine (3 μM) and, when the contraction reach a steady state a cumulative concentration-response curve to the test compounds was obtained. The time intervals between doses were based on the time needed to reach a full a steady state response.
Responses to test compounds were expressed as a percentage of residual contraction and plotted against concentration of test compound. EC50 values (where EC50 is the concentration producing 50% of the maximum relaxation to the test compound) were interpolated from these plots.

For assay [2], the system named is corticosteroid-induced glaucoma. The following applies: rabbit, administered topically twice a day; cited from earlier work.

Structures are written as SMILES.

As to `C[C@H]1CC2C3CCC4=CC(=O)C=C[C@]4(C)[C@@]3(F)[C@@H](O)C[C@]2(C)[C@@]1(OC(=O)CCCO[N+](=O)[O-])C(=O)COC(=O)CCCO[N+](=O)[O-]` (stereo partly drawn) [Compound (2), (9R,10S,11S,13S,16S,17R)-9-fluoro-11-hydroxy-10,13,16-trimethyl-17-(2-(4-(nitrooxy)butanoyloxy)acetyl)-3-oxo-6,7,8,9,10,11,12,13,14,15,16,17-dodecahydro-3H-cyclopenta[a]phenanthren-17-yl 4-(nitrooxy)butanoate], the EC50 in assay [1] was 1.68 ± 0.61 µM. As for `COc1cc(C(=O)OCCCCO[N+](=O)[O-])ccc1OC(=O)OCC(=O)[C@@]1(OC(=O)CCCO[N+](=O)[O-])[C@@H](C)CC2C3CCC4=CC(=O)C=C[C@]4(C)[C@@]3(F)[C@@H](O)C[C@@]21C` (stereo partly drawn) [Compound (3), 4-(nitrooxy)butyl 4-((2-((9R,10S,11S,13S,16S,17R)-9-fluoro-11-hydroxy-10,13,16-trimethyl-17-(4-(nitrooxy)butanoyloxy)-3-oxo-6,7,8,9,10,11,12,13,14,15,16,17-dodecahydro-3H-cyclopenta[a]phenanthren-17-yl)-2-oxoethoxy)carbonyloxy)-3-methoxybenzoate], the EC50 in assay [1] turned out to be 1.14 ± 0.48 µM.

Regarding `C[C@H]1C[C@H]2[C@@H]3CCC4=CC(=O)C=C[C@]4(C)[C@@]3(F)[C@@H](O)C[C@]2(C)[C@@]1(O)C(=O)CO` [betamethasone, Betamethasone], the “EC50 (concentration producing 50% of the maximum relaxation)” value in assay [1] (rabbit aortic rings precontracted with methoxamine (3 μM), cumulative concentration-response curve) is “no effect”.

`C[C@@H]1C[C@H]2[C@@H]3CCC4=CC(=O)C=C[C@]4(C)[C@@]3(F)[C@@H](O)C[C@]2(C)[C@@]1(O)C(=O)COC(=O)c1ccc(CO[N+](=O)[O-])cc1` [dexamethasone 21-[(4-nitrooxymethyl)]benzoate]: in assay [2], the “effects in corticosteroid-induced glaucoma (intraocular pressure, retro bulbar circulation, ciliary body morphology)” value was “may prevent the intraocular pressure increase, the impairment of retro bulbar circulation, and the morphological changes in the ciliary bodies”.

Values taken from US20110130375A1 (priority 2008, published 2011).
